Literature values in patent US20210085696A1, “FORMULATIONS COMPRISING CHELATORS, PERMEATION ENHANCERS AND HYDROXYETHYL CELLULOSE FOR TREATING OPHTHALMIC DISORDERS” (LIVIONEX, Inc., priority 2018, published 2021).

Conditions: @ 79° F.

water solubility: 34 % w/v
Structure (SMILES): CS(C)(=O)=O [MSM, methylsulfonylmethane]
